Laboratory results reported in patent publication US10377770B2 (Novartis AG, priority 2015, dated 2019).

Each compound was assayed against C-Raf FL (full length CRAF with Y340E and Y341E activating mutations, co-expressed with h14-3-3 zeta) (Homo sapiens (Human), UniProt P04049, Y340E/Y341E) (assay: In vitro Raf activity determination, AlphaScreen p-MEK readout, c-Raf (C-Raf FL)). Conditions: c-Raf approximately 4 nM, ATP 1 μM, pre-incubation 60 minutes, reaction 1 hour.
Type: biochemical
Outline: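 Phosphorylation of kinase-dead biotinylated MEK1 (~10 nM) by C-Raf FL (~4 nM) read by AlphaScreen luminescence with anti-phospho-MEK1/2 after EDTA stop. ATP was 1 μM, with a 1 h reaction at room temperature. Compounds were pre-incubated with enzyme and substrate for 60 min in Tris/MgCl2 buffer, pH 7.5.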

C-Raf FL (full length CRAF with Y340E and Y341E activating mutations, co-expressed with h14-3-3 zeta), sequence (P04049 whole entry Y340E/Y341E): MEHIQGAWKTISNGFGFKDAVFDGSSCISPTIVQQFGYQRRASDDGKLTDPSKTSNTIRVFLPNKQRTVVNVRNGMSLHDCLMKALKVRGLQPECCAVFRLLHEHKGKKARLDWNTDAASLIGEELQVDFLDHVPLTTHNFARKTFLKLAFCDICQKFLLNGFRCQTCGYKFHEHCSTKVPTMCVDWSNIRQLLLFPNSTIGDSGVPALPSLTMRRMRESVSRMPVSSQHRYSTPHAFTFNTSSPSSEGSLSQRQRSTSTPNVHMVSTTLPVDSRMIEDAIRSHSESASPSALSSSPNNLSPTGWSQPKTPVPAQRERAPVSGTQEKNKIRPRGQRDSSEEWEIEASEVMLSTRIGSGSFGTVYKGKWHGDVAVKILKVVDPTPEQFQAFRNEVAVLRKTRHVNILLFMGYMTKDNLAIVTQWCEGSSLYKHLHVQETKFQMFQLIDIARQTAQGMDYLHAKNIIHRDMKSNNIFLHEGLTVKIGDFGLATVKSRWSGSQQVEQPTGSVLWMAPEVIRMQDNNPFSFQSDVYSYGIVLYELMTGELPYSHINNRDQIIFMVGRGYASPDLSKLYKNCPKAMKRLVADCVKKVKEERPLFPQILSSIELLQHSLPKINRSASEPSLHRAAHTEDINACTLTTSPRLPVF
C-Raf FL (full length CRAF with Y340E and Y341E activating mutations, co-expressed with h14-3-3 zeta), sequence (P63104 whole entry partner): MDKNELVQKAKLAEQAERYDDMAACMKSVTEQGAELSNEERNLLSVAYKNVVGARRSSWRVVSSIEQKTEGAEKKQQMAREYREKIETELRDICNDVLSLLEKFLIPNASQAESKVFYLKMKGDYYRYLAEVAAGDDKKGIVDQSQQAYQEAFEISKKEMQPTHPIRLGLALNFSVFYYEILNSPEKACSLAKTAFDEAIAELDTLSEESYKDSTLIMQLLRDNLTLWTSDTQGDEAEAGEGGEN

In order of rising IC50:
1. Cc1ccc(NC(=O)c2ccnc(C(C)(F)F)c2)cc1-c1cnc2c(c1)N1CCOCC1CC(=O)N2 (racemic) [Example 124, rac-2-(1,1-Difluoroethyl)-N-(4-methyl-3-(6-oxo-1,2,4a,5,6,7-hexahydro-4H-[1,4]oxazino[4,3-d]pyrido[2,3-b][1,4]diazepin-10-yl)phenyl)isonicotinamide]  0.0094 nM
2. Cc1ccc(NC(=O)c2ccnc(C(F)(F)F)c2)cc1-c1cnc2c(c1)N1CCOCC1C(F)(F)C2O (racemic) [Example 166, rac-cis-N-(3-(5,5-difluoro-6-hydroxy-1′2′4′4a′5′6-hexahydro-[1,4]oxazino[4,3-a][1,5]naphthyridin-9-yl)-4-methylphenyl)-2-(trifluoromethyl)isonicotinamide]  0.011 nM
3. Cc1ncc(NC(=O)c2ccnc(C(C)(F)F)c2)cc1-c1ccc2c(c1)N1CCOCC[C@@H]1C[C@@H]2O [Example 97, 2-(1,1-difluoroethyl)-N-(5-((5aR,7S)-7-hydroxy-1,2,5,5a,6,7-hexahydro-4H-[1,4]oxazepino[4,5-a]quinolin-10-yl)-6-methylpyridin-3-yl)isonicotinamide]  0.014 nM
4. Cc1ccc(NC(=O)c2ccnc(C(F)(F)F)c2)cc1-c1cnc2c(c1)N1CCOC[C@H]1C[C@@H]2O (racemic) [Example 101, rac-cis-N-(3-(6-hydroxy-1,2,4,4a,5,6-hexahydro-[1,4]oxazino[4,3-a][1,5]naphthyridin-9-yl)-4-methylphenyl)-2-(trifluoromethyl)isonicotinamide]  0.026 nM
5. Cc1ncc(NC(=O)c2cccc(C(F)(F)F)c2)cc1-c1cnc2c(c1)N1CCOCC1C1(COC1)C2 (racemic) [Example 156, rac-N-(6-methyl-5-(2,4,4a,6-tetrahydro-1H-spiro[[1,4]oxazino[4,3-a][1,5]naphthyridine-5,3′-oxetan]-9-yl)pyridin-3-yl)-3-(trifluoromethyl)benzamide]  0.048 nM
6. Cc1ccc(NC(=O)c2ccnc(C(C)(F)F)c2)cc1-c1cnc2c(c1)[C@@H]1CCOC[C@H]1C(=O)N2CC(F)F [Example 265, 2-(1,1-difluoroethyl)-N-(3-((4aS, 10bR)-6-(2,2-difluoroethyl)-5-oxo-2,4,4a,5,6,10b-hexahydro-1H-pyrano[3,4-c][1,8]naphthyridin-9-yl)4-methylphenyl) isonicotinamide]  0.1 nM
7. CCN1C[C@@H]2COCCN2c2cc(-c3cc(NC(=O)c4ccnc(C(F)(F)F)c4)ccc3C)cnc2C1=O [Example 500, (R)-N-(3-(6-ethyl-7-oxo-1,2,4a,5,6,7-hexahydro-4H-[1,4]oxazino[4,3-a]pyrido[2,3-f][1,4]diazepin-10-yl)-4-methylphenyl)-2-(trifluoromethyl)iso-nicotinamide]  0.1 nM
8. CCN1C[C@@H]2COCC[C@H]2c2cc(-c3cc(NC(=O)c4ccnc(C(F)(F)F)c4F)ccc3C)cnc21 [Example 293, N-(3-((4aR, 10bR)-6-ethyl-2,4,4a,5,6,10b-hexahydro-1H-pyrano[3,4-c][1,8]naphthyridin-9-yl)-4-methylphenyl)-3-fluoro-2-(trifluoromethyl) isonicotinamide]  0.1 nM
9. CCN1C(=O)[C@@H]2[C@H]3COC[C@H]3[C@@H]2c2cc(-c3cc(NC(=O)c4ccnc(C(F)(F)F)c4F)ccc3C)cnc21 [Example 273, N-(3-((6aS, 6bS, 9aS, 9bS)-5-ethyl-6-oxo-5,6,6a,6b,7,9,9a,9b-octahydrofuro[3′,4′: 3,4]cyclobuta[1,2-c][1,8]naphthyridin-2-yl)-4-methylphenyl)-3-fluoro-2-(trifluoromethyl) isonicotinamide]  0.2 nM
10. CCN1C(=O)C2CCOCCC2c2cc(-c3cc(NC(=O)c4ccnc(C(C)(C)F)c4)cnc3C)cnc21 (stereo not drawn) [Example 251, N-(5-((5a, 11b- trans)-7-ethyl-6-oxo-1,2,4,5,5a, 6,7,11b-octahydrooxepino [4,5-c[1,8]naphtliyridin-10-yl)-6-methylpyridin-3-yl)-2-(2-fluoropropan-2-yl)isonicotinamide]  0.2 nM
11. CCNC(=O)C1Cc2ccc(-c3cc(NC(=O)c4ccnc(C(C)(F)F)c4)ccc3C)cc2N2CCOCC12 (racemic) [Example 74, (rac)-9-(5-(2-(1,1-difluoroethyl)isonicotinamido)-2-methylphenyl)-N-ethyl-1,2,4,4a,5,6-hexahydro-[1,4]oxazino[4,3-a]quinoline-5-carboxamide]  0.28 nM
12. CCN1C(=O)C2CCOCCC2c2cc(-c3cc(NC(=O)c4cccc(C(F)(F)F)c4)cnc3C)cnc21 (stereo not drawn) [Example 250, N-(5-((5a, 11b- trans)-7-ethyl-6-oxo-1,2,4,5,5a,6,7,11b-octahydrooxepino [4,5-c][1,8]naphthyridin-10-yl)-6-methylpyridin-3-yl)-3-(trifluoromethyl) benzamide]  0.3 nM
13. CCN1C(=O)C2COCCC2(C)c2cc(-c3cc(NC(=O)c4ccnc(C(F)(F)F)c4F)ccc3C)cnc21 (stereo not drawn) [Example 347, N-(3-((4a,10b- trans)-6-ethyl-10b-methyl-5-oxo-2,4,4a.5,6,10b-hexahydro-1H-pyrano[3,4-c][1,8]naphthyridin-9-yl)-4-methylphenyl)-3-fluoro-2-(trifluoromethyl) isonicotinamide]  0.3 nM
14. Cc1ccc(NC(=O)c2ccnc(C(C)(F)F)c2)cc1-c1ccc2c(c1)N1CCOC[C@H]1[C@](F)(CO)C2 [Example 369, 2-(1,1-difluoroethyl)-N-(3-((4aS,5S)-5-fluoro-5-(hydroxymethyl)-1,2,4,4a,5,6-hexahydro-[1,4]oxazino[4,3-a]quinolin-9-yl)-4-methylphenyl)isonicotinamide]  0.3 nM
15. Cc1ccc(NC(=O)c2ccnc(C(C)(C)F)c2)cc1-c1ccc2c(c1)N1CCOC[C@H]1[C@](F)(CO)C2 [Example 386, N-(3-((4aS,5S)-5-fluoro-5-(hydroxymethyl)-1,2,4,4a,5,6-hexahydro-[1,4]oxazino[4,3-a]quinolin-9-yl)-4-methylphenyl)-2-(2-fluoropropan-2-yl)isonicotinamide]  0.3 nM
16. Cc1ccc(NC(=O)c2ccnc(C(F)(F)F)c2)cc1-c1ccc2c(c1)N1CCOC[C@@H]1[C@](F)(CO)C2 [Example 399, N-(3-((4aR,5S)-5-fluoro-5-(hydroxymethyl)-1,2,4,4a,5,6-hexahydro-[1,4]oxazino[4,3-a]quinolin-9-yl)-4-methylphenyl)-2-(trifluoromethyl)isonicotinamide]  0.3 nM
17. Cc1ncc(NC(=O)c2cccc(C(F)(F)F)c2)cc1-c1cc2c(cc1F)C[C@](F)(CO)[C@H]1COCCN21 [Example 479, N-(5-((4aR,5R)-5,8-difluoro-5-(hydroxymethyl)-1,2,4,4a,5,6-hexahydro-[1,4]oxazino[4,3-a]quinolin-9-yl)-6-methylpyridin-3-yl)-3-(trifluoromethyl) benzamide]  0.4 nM
18. CCN1C(=O)C[C@H]2COCCN2c2cc(-c3cc(NC(=O)c4cnnc(C(F)(F)F)c4)ccc3C)cnc21 [Example 326, (S)-N-(3-(7-ethyl-6-oxo-2,4,4a,5,6,7-hexahydro-1H-[1,4]oxazino[4,3-d]pyrido[2,3-b][1,4]diazepin-10-yl)-4-methylphenyl)-6-(trifluoromethyl) pyridazine-4-carboxamide]  0.5 nM
19. Cc1ccc(NC(=O)c2ccnc(C(C)(F)F)c2)cc1-c1cc(F)c2c(c1)N1CCOC[C@H]1[C@](F)(CO)C2 [Example 420, N-(3-((4aS,5S)-5,7-difluoro-5-(hydroxymethyl)-1,2,4,4a,5,6-hexahydro-[1,4]oxazino[4,3-a]quinolin-9-yl)-4-methylphenyl)-2-(1,1-difluoroethyl)isonicotinamide]  0.6 nM
20. Cc1ccc(NC(=O)c2ccnc(C(F)(F)F)c2)cc1-c1cnc2c(c1)N1CCOC[C@H]1[C@@H](C(C)(C)O)C2 [Example 451, N-(3-((4aR,5S)-5-(2-hydroxypropan-2-yl)-1,2,4,4a,5,6-hexahydro-[1,4]oxazino[4,3-a][1,5]naphthyridin-9-yl)-4-methylphenyl)-2-(trifluoromethyl) isonicotinamide]  0.6 nM
21. Cc1ccc(NC(=O)c2ccnc(C(C)(C)F)c2)cc1-c1ccc2c(c1)N1CCOC[C@H]1[C@](F)(CN)C2 [Example 525, N-(3-((4aS,5R)-5-(aminomethyl)-5-fluoro-1,2,4,4a,5,6-hexahydro-[1,4]oxazino[4,3-a]quinolin-9-yl)-4-methylphenyl)-2-(2-fluoropropan-2-yl)isonicotinamide]  1.5 nM
22. Cc1ccc(NC(=O)c2cncc(C(F)(F)F)c2)cc1-c1cc2c(cc1F)C[C@@](F)(CO)[C@@H]1COCCN21 [Example 486, N-(3-((4aS,5S)-5,8-difluoro-5-(hydroxymethyl)-1,2,4,4a,5,6-hexahydro-[1,4]oxazino[4,3-a]quinolin-9-yl)-4-methylphenyl)-5-(trifluoromethyl) nicotinamide]  1.6 nM
23. CCN1C(=O)OC2COCCC2c2cc(-c3cc(NC(=O)c4cccc(C(F)(F)F)c4)cnc3C)cnc21 [Example 296, N-(5-((4aS,11bR- cis)-7-ethyl-6-oxo-2,4,4a,6,7,11b-hexahydro-1H-pyrano[4,3-f]pyrido[2,3-d][1,3]oxazepin-10-yl)-6-methylpyridin-3-yl)-3-(trifluoromethyl) benzamide]  1.8 nM
24. Cc1ccc(NC(=O)c2ccnc(C(F)(F)F)c2)cc1-c1cnc2c(c1)C1CCOCC1OC(=O)N2CCO (stereo not drawn) [Example 330, N-(3-((4,11b-cis)-7-(2-hydroxyethyl)-6-oxo-2,4,4a,6,7,11b-hexahydro-1H-pyrano[4,3-f]pyrido[2,3-d][1,3]oxazepin-10-yl)-4-methylphenyl)-2-(trifluoromethyl) isonicotinamide]  3.1 nM
25. CCN1C(=O)[C@@H]2COCC[C@H]2c2cc(-c3cc(NC(=O)c4ccnc(C(F)(F)F)c4F)ccc3C)cnc21 [Example 253, N-(3-((4aS, 10bR)-6-ethyl-5-oxo-2,4,4a,5,6,10b-hexahydro-1H-pyrano[3,4-c][1,8]naphthyridin 9-yl)-4-methylphenyl)-3-fluoro-2-(trifluoromethyl) isonicotinamide]  3.2 nM
